The test system of the first test is NCI-H322M. Put plainly: relative viability (nuclei count vs DMSO), 5 days (fraction); higher = more cells survive. The note with it: first compound 2.53 µM. In short, it runs like this:
(§1)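 Cells from lung cancer lines were seeded into 1536-well plates and, one day later, dosed by pin tool. Treatments were either a single drug or a fixed dose of an anchor drug with five library-drug doses (not always all listed) in √10 steps. After 5 days, nuclei were stained in a one-step fixation (final 0.05% Triton X-100, 1% formaldehyde, 1 ug/ml Hoechst) and counted on 4× images, and relative viability is the treated-to-vehicle nuclei ratio, as the median of duplicate plates.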
Take `Oc1nc(-c2ccc(C(F)(F)F)cc2)nc2c1CSCC2` [XAV939] + CC(=O)c1c(C)c2cnc(Nc3ccc(N4CCNCC4)cn3)nc2n(C2CCCC2)c1=O [Palbociclib] (partner 0.5 µM): the relative viability was 0.433.

The test is the same for the next values; noted with them: first compound 8 µM.
Consider `C=C1C(=O)O[C@@H](CCCCCCCC)[C@@H]1C(=O)O` [C-75] + Nc1nc2[nH]cc(CCc3ccc(C(=O)N[C@@H](CCC(=O)O)C(=O)O)cc3)c2c(=O)[nH]1 [Pemetrexed] (partner 0.2 µM), for which the relative viability was 0.625.
Still for that read-out and setting: under `C=C1C(=O)O[C@@H](CCCCCCCC)[C@@H]1C(=O)O` [C-75] + CC(=O)c1c(C)c2cnc(Nc3ccc(N4CCNCC4)cn3)nc2n(C2CCCC2)c1=O [Palbociclib] (partner 0.5 µM) stands 0.481.

Another test deals with NCI-H460. The description is as above. The note with it: first compound 0.08 µM. In short, it runs like this: as §1
`Oc1nc(-c2ccc(C(F)(F)F)cc2)nc2c1CSCC2` [XAV939] + O=C(CCCCCCC(=O)Nc1ccccc1)NO [Vorinostat] (partner 1 µM) showed a relative viability of 0.943.
On to `C=C1C(=O)O[C@@H](CCCCCCCC)[C@@H]1C(=O)O` [C-75] + Nc1nc2[nH]cc(CCc3ccc(C(=O)N[C@@H](CCC(=O)O)C(=O)O)cc3)c2c(=O)[nH]1 [Pemetrexed] (partner 0.2 µM), for which the relative viability stood at 0.0548.
The same measure, in the same setting: with `Oc1nc(-c2ccc(C(F)(F)F)cc2)nc2c1CSCC2` [XAV939] + O=C(c1cc(Cc2n[nH]c(=O)c3ccccc23)ccc1F)N1CCN(C(=O)C2CC2)CC1 [Olaparib] (partner 8 µM) the figure was 0.58; with `Oc1nc(-c2ccc(C(F)(F)F)cc2)nc2c1CSCC2` [XAV939] + CC(=O)c1c(C)c2cnc(Nc3ccc(N4CCNCC4)cn3)nc2n(C2CCCC2)c1=O [Palbociclib] (partner 0.5 µM), 0.223; with `C=C1C(=O)O[C@@H](CCCCCCCC)[C@@H]1C(=O)O` [C-75] + CC(=O)c1c(C)c2cnc(Nc3ccc(N4CCNCC4)cn3)nc2n(C2CCCC2)c1=O [Palbociclib] (partner 0.5 µM), 0.0813.

The same test, now with this note: first compound 0.253 µM.
As for `Oc1nc(-c2ccc(C(F)(F)F)cc2)nc2c1CSCC2` [XAV939] + O=C(CCCCCCC(=O)Nc1ccccc1)NO [Vorinostat] (partner 1 µM), the relative viability was 0.46.
On the same count and under the same terms, with `C=C1C(=O)O[C@@H](CCCCCCCC)[C@@H]1C(=O)O` [C-75] + Nc1nc2[nH]cc(CCc3ccc(C(=O)N[C@@H](CCC(=O)O)C(=O)O)cc3)c2c(=O)[nH]1 [Pemetrexed] (partner 0.2 µM) the figure was 0.0554.
Still for that read-out and setting: with `Oc1nc(-c2ccc(C(F)(F)F)cc2)nc2c1CSCC2` [XAV939] + O=C(c1cc(Cc2n[nH]c(=O)c3ccccc23)ccc1F)N1CCN(C(=O)C2CC2)CC1 [Olaparib] (partner 8 µM) the figure was 0.35; with `Oc1nc(-c2ccc(C(F)(F)F)cc2)nc2c1CSCC2` [XAV939] + CC(=O)c1c(C)c2cnc(Nc3ccc(N4CCNCC4)cn3)nc2n(C2CCCC2)c1=O [Palbociclib] (partner 0.5 µM), 0.177.
Still for that read-out and setting: with `C=C1C(=O)O[C@@H](CCCCCCCC)[C@@H]1C(=O)O` [C-75] + CC(=O)c1c(C)c2cnc(Nc3ccc(N4CCNCC4)cn3)nc2n(C2CCCC2)c1=O [Palbociclib] (partner 0.5 µM) the figure was 0.104.

The test is the same for the next values; noted with them: first compound 0.8 µM.
For the compound `Oc1nc(-c2ccc(C(F)(F)F)cc2)nc2c1CSCC2` [XAV939] + O=C(CCCCCCC(=O)Nc1ccccc1)NO [Vorinostat] (partner 1 µM), the relative viability is 0.649.
The compound `C=C1C(=O)O[C@@H](CCCCCCCC)[C@@H]1C(=O)O` [C-75] + Nc1nc2[nH]cc(CCc3ccc(C(=O)N[C@@H](CCC(=O)O)C(=O)O)cc3)c2c(=O)[nH]1 [Pemetrexed] (partner 0.2 µM) returned a relative viability of 0.0669.
On the same count and under the same terms, with `Oc1nc(-c2ccc(C(F)(F)F)cc2)nc2c1CSCC2` [XAV939] + O=C(c1cc(Cc2n[nH]c(=O)c3ccccc23)ccc1F)N1CCN(C(=O)C2CC2)CC1 [Olaparib] (partner 8 µM) the figure was 0.395; with `Oc1nc(-c2ccc(C(F)(F)F)cc2)nc2c1CSCC2` [XAV939] + CC(=O)c1c(C)c2cnc(Nc3ccc(N4CCNCC4)cn3)nc2n(C2CCCC2)c1=O [Palbociclib] (partner 0.5 µM), 0.12.
The same measure, in the same setting: with `C=C1C(=O)O[C@@H](CCCCCCCC)[C@@H]1C(=O)O` [C-75] + CC(=O)c1c(C)c2cnc(Nc3ccc(N4CCNCC4)cn3)nc2n(C2CCCC2)c1=O [Palbociclib] (partner 0.5 µM) the figure was 0.126.

Staying with this test, now noted: first compound 2.53 µM.
`Oc1nc(-c2ccc(C(F)(F)F)cc2)nc2c1CSCC2` [XAV939] + O=C(CCCCCCC(=O)Nc1ccccc1)NO [Vorinostat] (partner 1 µM) displayed a relative viability of 0.433.
Same read-out and setting: under `C=C1C(=O)O[C@@H](CCCCCCCC)[C@@H]1C(=O)O` [C-75] + Nc1nc2[nH]cc(CCc3ccc(C(=O)N[C@@H](CCC(=O)O)C(=O)O)cc3)c2c(=O)[nH]1 [Pemetrexed] (partner 0.2 µM) stands 0.0313.
Still for that read-out and setting: under `Oc1nc(-c2ccc(C(F)(F)F)cc2)nc2c1CSCC2` [XAV939] + O=C(c1cc(Cc2n[nH]c(=O)c3ccccc23)ccc1F)N1CCN(C(=O)C2CC2)CC1 [Olaparib] (partner 8 µM) stands 0.271; under `Oc1nc(-c2ccc(C(F)(F)F)cc2)nc2c1CSCC2` [XAV939] + CC(=O)c1c(C)c2cnc(Nc3ccc(N4CCNCC4)cn3)nc2n(C2CCCC2)c1=O [Palbociclib] (partner 0.5 µM), 0.0927.
Still for that read-out and setting: with `C=C1C(=O)O[C@@H](CCCCCCCC)[C@@H]1C(=O)O` [C-75] + CC(=O)c1c(C)c2cnc(Nc3ccc(N4CCNCC4)cn3)nc2n(C2CCCC2)c1=O [Palbociclib] (partner 0.5 µM) the figure was 0.132.

The same test, now with this note: first compound 8 µM.
Turning to `C=C1C(=O)O[C@@H](CCCCCCCC)[C@@H]1C(=O)O` [C-75] + Nc1nc2[nH]cc(CCc3ccc(C(=O)N[C@@H](CCC(=O)O)C(=O)O)cc3)c2c(=O)[nH]1 [Pemetrexed] (partner 0.2 µM), the relative viability was found to be 0.0571.
On the same count and under the same terms, with `C=C1C(=O)O[C@@H](CCCCCCCC)[C@@H]1C(=O)O` [C-75] + CC(=O)c1c(C)c2cnc(Nc3ccc(N4CCNCC4)cn3)nc2n(C2CCCC2)c1=O [Palbociclib] (partner 0.5 µM) the figure was 0.155.

For the next test, the system named is NCI-H647. The test is described as above. The settings on record: first compound 0.08 µM. In short, it runs like this:
as §1
In turn, `Oc1nc(-c2ccc(C(F)(F)F)cc2)nc2c1CSCC2` [XAV939] + O=C(CCCCCCC(=O)Nc1ccccc1)NO [Vorinostat] (partner 1 µM) registered a relative viability of 0.581.
Still for that read-out and setting: with `C=C1C(=O)O[C@@H](CCCCCCCC)[C@@H]1C(=O)O` [C-75] + Nc1nc2[nH]cc(CCc3ccc(C(=O)N[C@@H](CCC(=O)O)C(=O)O)cc3)c2c(=O)[nH]1 [Pemetrexed] (partner 0.2 µM) the figure was 0.181.
Same read-out and setting: with `Oc1nc(-c2ccc(C(F)(F)F)cc2)nc2c1CSCC2` [XAV939] + O=C(c1cc(Cc2n[nH]c(=O)c3ccccc23)ccc1F)N1CCN(C(=O)C2CC2)CC1 [Olaparib] (partner 8 µM) the figure was 0.734; with `Oc1nc(-c2ccc(C(F)(F)F)cc2)nc2c1CSCC2` [XAV939] + CC(=O)c1c(C)c2cnc(Nc3ccc(N4CCNCC4)cn3)nc2n(C2CCCC2)c1=O [Palbociclib] (partner 0.5 µM), 0.406; with `C=C1C(=O)O[C@@H](CCCCCCCC)[C@@H]1C(=O)O` [C-75] + CC(=O)c1c(C)c2cnc(Nc3ccc(N4CCNCC4)cn3)nc2n(C2CCCC2)c1=O [Palbociclib] (partner 0.5 µM), 0.312.

Staying with this test, now noted: first compound 0.253 µM.
`Oc1nc(-c2ccc(C(F)(F)F)cc2)nc2c1CSCC2` [XAV939] + O=C(CCCCCCC(=O)Nc1ccccc1)NO [Vorinostat] (partner 1 µM) gave a relative viability of 0.545.

The values are drawn from the supplement of paper PMC10307832.
